This note sets out measurements from ChEMBL document CHEMBL1135890, “Structure-activity relationships of 2'-fluoro-2',3'-unsaturated D-nucleosides as anti-HIV-1 agents” (J Med Chem, 2002).

In general, EC50 refers to the concentration that produces a half-maximal response. In general, IC50 refers to the concentration that gives 50% inhibition. A word on the half-life: it is the time needed for the level to fall by half in the phase considered. Read a low half-life as fast loss.

In data set [1] the test system is Human immunodeficiency virus 1. The experiment in a line: Anti-HIV activity was determined. Type of data set: functional, organism-based.
Data set [2] in a line: (§1) Toxicity against human peripheral blood mononuclear (PBM) cells.
For data set [3], the system named is CCRF-CEM. Briefly: Cytotoxicity against CEM cells. Type of data set: cell-based, Homo sapiens.
In data set [4] the test system is Vero. Briefly: (§2) Cytotoxicity against Vero cells was determined. The format is cell-based. To be noted: Chlorocebus sabaeus.
Data set [5] can be described thus: Anti-HIV activity against human peripheral blood mononuclear (PBM) cell lines infected with XxBRU Pitt (FTC sensitive isolate). The format is functional.
Data set [6] in a line: Anti-HIV activity against human peripheral blood mononuclear (PBM) cell lines infected with M184V Pitt (FTC resistant isolate). The format is functional.
A short description of data set [7]: Half life at pH 2.0. The format is ADME. The settings on record: buffer.
The nature of data set [8]: Half life was determined. The format is ADME.
For data set [9], the system named is Vero. The data set is described as §2. The format is functional, cell-based. The settings on record: Chlorocebus sabaeus.
Data set [10] is described as follows: as §1. Type of data set: functional.
Data set [11] concerns CCRF-CEM. The experiment in a line: Cytotoxicity against CEM cells was determined. Type of data set: functional, cell-based. To be noted: Homo sapiens.
Where [12] appears, read: human, peripheral blood mononuclear (PBM) cells, IC50.

On to `Nc1nc(F)nc2c1ncn2[C@@H]1O[C@H](CO)C=C1F`, for which the EC50 in [1] (Human immunodeficiency virus 1) was > 100 µM. The IC50 in data set [2] (setting [12]) is > 100 µM; in the data set on CCRF-CEM [3] (Homo sapiens, CCRF-CEM) it was > 100 µM; with Vero [4], > 100 µM.
Consider `OC[C@@H]1C=C(F)[C@H](n2cnc3c(O)ncnc32)O1`, for which the EC50 in data set [5] amounted to 2.8 µM; in [1] (Human immunodeficiency virus 1), 1 µM; in data set [6], 2.5 µM. The IC50 in data set [2] (setting [12]) is 92.7 µM; in the data set on CCRF-CEM [3] (Homo sapiens, CCRF-CEM), > 100 µM; in the data set with Vero [4] it was 87.7 µM.
Regarding `Nc1nc(N)c2ncn([C@@H]3O[C@H](CO)C=C3F)c2n1`, the EC50 in [1] (Human immunodeficiency virus 1) was determined as 3 µM. Besides, the IC50 is > 100 µM in [2] (setting [12]); > 100 µM in the data set on CCRF-CEM [3] (Homo sapiens, CCRF-CEM); > 100 µM in the data set on Vero [4].
`Nc1nc(F)nc2c1ncn2[C@H]1O[C@H](CO)C=C1F`: a half-maximal response in [1] (Human immunodeficiency virus 1) (EC50) required 3.97 µM. For the same compound, the IC50 in data set [2] (setting [12]) was found to be 41.2 µM; with CCRF-CEM [3] (Homo sapiens, CCRF-CEM), 28.3 µM; in the data set on Vero [4], 16.1 µM.
For `Nc1nc(N)c2ncn([C@@H]3O[C@@H](CO)C=C3F)c2n1`, in that order: > 100 µM, > 100 µM, > 100 µM and > 100 µM.
`OC[C@@H]1C=C(F)[C@@H](n2cnc3c(O)ncnc32)O1`: the EC50 in [1] (Human immunodeficiency virus 1) is > 100 µM. Besides, the IC50 in [2] (setting [12]) was > 100 µM; with CCRF-CEM [3] (Homo sapiens, CCRF-CEM), > 100 µM; in the data set with Vero [4] it was > 100 µM.
With `Cc1cn([C@@H]2O[C@H](CO)C=C2F)c(=O)nc1N`, the EC50 in data set [1] (Human immunodeficiency virus 1) was > 100 µM. For the same compound, the IC50 in data set [2] (setting [12]) was > 100 µM; with CCRF-CEM [3] (Homo sapiens, CCRF-CEM), > 100 µM; with Vero [4] it was > 100 µM.
Consider `Nc1nc(Cl)c2ncn([C@@H]3O[C@H](CO)C=C3F)c2n1` (stereo in doubt; 11), for which, in data set [1], the EC50 came to 4.3 µM. The figures for the IC50 (in [2]; with CCRF-CEM [3] (ccrf-cem)) were 98.8 µM and > 100 µM, respectively.
Turning to `Nc1nc(Cl)c2ncn([C@@H]3O[C@H](CO)C=C3F)c2n1` (stereo in doubt; 13), the EC50 in [1] is > 75 µM. For the same compound, the IC50 in [2] (setting [12]) is 77.4 µM; in the data set with CCRF-CEM [3] (ccrf-cem) it was 30.2 µM; in the data set with Vero [4], > 100 µM.
In the case of `Nc1ncnc2c1ncn2[C@@H]1O[C@H](CO)C=C1F` (stereo in doubt; 14), the EC50 in [5] was found to be 0.46 µM; in [1], 0.44 µM; in [6], 0.8 µM. For the same compound, the half-life is 72 h in data set [7] and 41.6 min in data set [8]. The IC50 in the data set on Vero [9] is > 100 µM; in data set [10], 68.3 µM; in the data set with CCRF-CEM [11], 57.6 µM.
Take `Nc1ncnc2c1ncn2[C@@H]1O[C@H](CO)C=C1F` (stereo in doubt; 15): the EC50 in data set [1] is > 100 µM. The IC50 in [2] (setting [12]) is > 100 µM; in the data set on CCRF-CEM [3] (Homo sapiens, CCRF-CEM) it was > 100 µM; in the data set with Vero [4] it was > 100 µM.
Compound `Nc1nc(O)c2ncn([C@@H]3O[C@H](CO)C=C3F)c2n1` (stereo in doubt; 18) had an EC50 in data set [6] of 11.2 µM.
In data set [1], `Nc1nc(O)c2ncn([C@@H]3O[C@H](CO)C=C3F)c2n1` (stereo in doubt; 19) registered an EC50 of 18.3 µM. For the same compound, the IC50 in data set [2] (setting [12]) was > 100 µM; with CCRF-CEM [3] (Homo sapiens, CCRF-CEM), > 100 µM; with Vero [4], > 100 µM.
With `Nc1ccn([C@@H]2O[C@H](CO)C=C2F)c(=O)n1` (stereo in doubt; 28), the EC50 in data set [1] amounted to 2.6 µM. The IC50 was determined as 7.3 µM in data set [2] and 35.3 µM with CCRF-CEM [3] (ccrf-cem).
As for `Nc1ccn([C@@H]2O[C@H](CO)C=C2F)c(=O)n1` (stereo in doubt; 29), in [1], the EC50 is > 100 µM. The IC50 (in data set [2]; in the data set with CCRF-CEM [3] (ccrf-cem); in the data set on Vero [4]) was > 100 µM in each case.
With `Nc1nc(=O)n([C@@H]2O[C@H](CO)C=C2F)cc1F` (stereo in doubt; 30), the EC50 worked out at 3.1 µM in [5], 0.82 µM in data set [1] and 9.61 µM in data set [6]. Further, the IC50 in data set [2] (setting [12]) is > 100 µM; in the data set with CCRF-CEM [3] (Homo sapiens, CCRF-CEM), > 100 µM; in the data set on Vero [4], > 100 µM.
In the case of `Nc1nc(=O)n([C@@H]2O[C@H](CO)C=C2F)cc1F` (stereo in doubt; 31), in [1], the EC50 is > 100 µM.
Take `Nc1ncnc2c1ncn2[C@@H]1O[C@H](CO)[C@@H](O)[C@H]1O` [ADENOSINE]: the half-life in [8] is 0.417 min.
For `Cc1cn([C@H]2C[C@H](N=[N+]=[N-])[C@@H](CO)O2)c(=O)[nH]c1=O` [ZIDOVUDINE], the EC50 in data set [5] worked out at 0.005 µM; in data set [6] it was 0.004 µM. In addition, in data set [2] (setting [12]), the IC50 was > 100 µM.
